According to US12054466B2, “Compounds for the treatment of clostridium difficile infection” (University of Notre Dame du Lac, priority 2016, dated 2024):
Like-named read-outs stand apart in the source and are kept apart here.

Columns and labels:
[1] = cited from earlier work
[2] = test system: C. difficile strain ATCC 43255; experiment: Mouse model of recurrent CDI, survival; conditions: po once a day for 5 days; oxadiazole 2 20 mg/kg/day, vancomycin 50 mg/kg/day
[3] = test system: DNA, protein and peptidoglycan synthesis in C. difficile ATCC 43255; experiment: Macromolecular synthesis assays; assay type: cell-based
Source text: Macromolecular synthesis assays. The method of Mathur et al (J Antimicrob Chemother 2011, 66(5), 1087) was used with a few modifications. [2,8-^3H]-adenine (40 Ci/mmol), 1-[3,4,5-^3H(N)]-leucine (120 Ci/mmol), and N-acetyl-d-[6-^3H]-glucosamine (30 Ci/mmol) were purchased from Perkin Elmer (Waltham, MA). Ciproflaxin, linezolid, and oxacillin, were used as positive controls for DNA, protein, and peptidoglycan, respectively. Ciprofloxacin and oxacillin were purchased from Sigma-Aldrich (St. Louis, MO), linezolid was obtained from AmplaChem Inc. (Carmel, IN). […] Aliquots were taken every 30 min for radioactive counting and viability. Optimal incubation times were 60 min for DNA, 180 min for protein, and 120 min for peptidoglycan.

C. difficile ATCC43255 = experiment: Inhibition of vegetative cells, spores and toxins in exponential phase cells
[4] = Toxicity and fecal concentration after multiple oral doses
[5] = test system: C. difficile strain ATCC 43255; experiment: Mouse model of recurrent CDI, second study: fecal cell, spore and toxin evaluation; assay type: in vivo, mice
Procedure: C. difficile Mouse Model. […] A negative vehicle control will be included. […] This study was conducted in duplicates.
A second study was conducted with oxadiazole 2 given po at 20 or 40 mg/kg for 5 days and vancomycin administered at 50 mg/kg po for 5 days. Fecal samples were collected on days 3, 7, and 10 for C. difficile spore and toxin evaluation.

[6] = mouse, in vivo, po, 20 mg/kg, 24 h
[7] = Pharmacokinetics after single po and iv administration
C. difficile = experiment: MIC against C. difficile (strain not named; 14 strains overall); assay type: cell-based, Clostridium difficile; conditions: 14 C. difficile strains
C. difficile infection = conditions: cited from earlier work
[8] = summary statement, species not given
[9] = 40 mg/kg/day po for 5 days, uninfected mice
[10] = female, C57B1/6, mouse, feces, po, 40 mg/kg/day

FC(F)(F)c1ccc(Oc2ccc(-c3noc(-c4ccc5[nH]ccc5c4)n3)cc2)cc1 [Compound 1]
clearance ([1]; in words): low clearance | Oral bioavailability [1, 8]: 97% | Terminal half-life [1, 8]: 18.6 h

Oc1ccc(-c2nc(-c3ccc(OC4CCCC4)cc3)no2)cc1 [Compound 2]
Survival after 25 days [2]: 70% | Inhibition of peptidoglycan synthesis ([3]; N-acetyl-d-[6-3H]-glucosamine incorporation, ½ MIC, 120 min): 54.8±3.7% | Inhibition of DNA synthesis ([3]; [2,8-3H]adenine incorporation, in words): not significant | Inhibition of protein synthesis ([3]; l-[3,4,5-3H(N)]-leucine incorporation, in words): not significant | Concentration that inhibited growth of vegetative cells (C. difficile ATCC43255; 24 hours): 1 ×MIC | Concentration that inhibited toxin production (C. difficile ATCC43255; 24 hours, TcdA and TcdB by ELISA): 1 ×MIC | Concentration that inhibited spore production (C. difficile ATCC43255; 48 hours): ¼ | Concentration that inhibited toxin production (C. difficile ATCC43255; 48 hours): 1 ×MIC | Concentration that inhibited spores (C. difficile ATCC43255; 72 hours): 1 ×MIC | Concentration that inhibited toxin production (C. difficile ATCC43255; 72 hours): 1 ×MIC | Concentration that inhibited vegetative cells (C. difficile ATCC43255; 72 hours): 1 ×MIC | Tolerability [4, 9]: well tolerated | Weight loss [4, 9]: did not result in weight loss | Body weight ([4]; Day 1, 40 mg/kg/day po for 5 days, uninfected mice): 19.6 ± 0.6 g | Body weight ([4]; Day 2, 40 mg/kg/day po for 5 days, uninfected mice): 19.8 ± 0.6 g | Body weight ([4]; Day 3, 40 mg/kg/day po for 5 days, uninfected mice): 19.8 ± 1.0 g | Body weight ([4]; Day 4, 40 mg/kg/day po for 5 days, uninfected mice): 19.7 ± 1.0 g | Body weight ([4]; Day 5, 40 mg/kg/day po for 5 days, uninfected mice): 19.4 ± 0.6 g | Oxadiazole 2 in Feces ([4]; Day 5, 40 mg/kg/day po for 5 days, uninfected mice, 40 mg/kg/day): 30.8 ± 11.1 μg/g feces | concentration at 5 day ([4]; female, C57B1/6, mouse, feces, oral, 40 mg/kg): 30800 ng/mL | concentration at 1 day [4, 10]: 9800 ± 400 ng/g | concentration at 2 day [4, 10]: 15000 ± 3700 ng/g | concentration at 3 day [4, 10]: 18100 ± 2400 ng/g | concentration at 4 day [4, 10]: 16900 ± 1800 ng/g | concentration at 5 day [4, 10]: 30800 ± 11100 ng/g | Decrease in spores in feces ([5]; 20 mg/kg group): 3 log | Total cell counts in feces, lower on day 10 compared to day 3 ([5]; 20 mg/kg/day for 5 days): 3.44 log | Spores in feces ([5]; 40 mg/kg group, days 3, 7 and 10, in words): no spores were observed at any time | Toxin production in feces ([5]; 40 mg/kg group, in words): no toxin production was detected | Total cell counts in feces, lower on day 10 compared to day 3 ([5]; 40 mg/kg/day for 5 days): 4.68 log | Reduction in spores in feces ([5]; b100, 20 mg/kg): 1.85 log | Reduction in vegetative cells in feces by day 10 ([5]; dose of compound 2 not stated): about 3 log | Level in feces as multiple of MIC [6]: approximately 20 ×MIC | Clearance as share of hepatic blood flow ([7]; mice, 20 mg/kg iv): approximately 20% | Absolute oral bioavailability F ([7]; mice, 20 mg/kg po vs iv, 20 mg/kg): 4% | concentration at 24 h ([7]; mouse, feces, po, 20 mg/kg): 43000 ± 3000 ng/g | AUC(0-inf) ([7]; mouse, plasma, iv, 20 mg/kg): 19200 ng·h/mL | Vd ([7]; mouse, plasma, iv, 20 mg/kg): 1.8 L/kg | clearance ([7]; mouse, plasma, iv, 20 mg/kg): 17.4 mL/min/kg | half-life ([7]; mouse, plasma, iv, 20 mg/kg): 1.2 h | bioavailability ([7]; mouse, plasma, oral, 20 mg/kg, Absolute oral bioavailability F, mice, 20 mg/kg po vs iv): 3.8% | AUC(0-inf) ([7]; mouse, plasma, po, 20 mg/kg): 733 ng·h/mL | Cmax ([7]; mouse, plasma, po, 20 mg/kg): 300 ng/mL | half-life ([7]; mouse, plasma, po, 20 mg/kg): 1.1 h

CCc1c(Cl)c(O)c(Cl)c(O)c1C(=O)O[C@H]1[C@H](O)[C@H](OC)[C@H](OC/C2=C\C=C\C[C@H](O)/C(C)=C/[C@H](CC)[C@@H](O[C@@H]3OC(C)(C)[C@@H](OC(=O)C(C)C)[C@H](O)[C@@H]3O)/C(C)=C/C(C)=C/C[C@@H]([C@@H](C)O)OC2=O)O[C@@H]1C [fidaxomicin]
MIC range in 14 C. difficile strains (C. difficile): <0.01 to 0.25 µg/mL | Treatment failure (C. difficile infection; CDI): 12% | Patients with recurrence of the infection (C. difficile infection; patients treated for CDI): About 25%
